The values below come from patent US10710951B2, “Pharmaceutical composition containing verbenone derivative for treating or preventing neurodegenerative disease” (KOREA UNIVERSITY RESEARCH AND BUSINESS FOUNDATION, priority 2012, dated 2020).

Series [1] deals with cortical neurons. Briefly: Intracellular levels (DCF fluorescence) of reactive oxygen species after OGD/reoxygenation. Format: cell-based, SD rats. The note with it: FIG. 3. Here is the method: In order to examine the direct radical scavenging activities of the samples, at 1 hour after reoxygenation, the cells were stained with the fluorescent probe H2DCF-DA (2,7-dihydroichlorofluorescein diacetate) that is widely used to measure intracellular oxidative stress. After 2 hours, the cells were washed in EBSS buffer (containing 25 mM glucose, 1.8 mM CaCal2, 1.2 mM MgSO4 and 2.5 mM probenecid (pH7.4)), and the fluorescence of DCF was measured with a fluorescence microplate reader (SpectraMax GeminiEM; Ex=485 nm, Em=530 nm) or a fluorescence microscope (DM IL HC Fluo, Leica, Wetzlar, Germany) equipped with a digital camera (DFC420C, Leica, Wetzlar Germany). The fluorescence intensity was compensated with autofluorescence (i.e., the fluorescence of cells not loaded with H2DCF-DA).

In series [2] the test system is cortical neurons. Briefly: Oxygen-glucose deprivation (OGD)/reoxygenation neuronal injury, LDH release. The series is classed as cell-based. The note with it: rat cortical neurons, FIG. 1. Here is the method: Cortical neurons (5×10^5 cells/ml) were isolated from fetal SD rats (16-17 days). Specifically, brain cortex was cut, and cells were isolated from the tissue by repeated trituration using a Pasteur pipette in buffer (Hanks' Balanced Salt Solution, HBSS). The cell suspension (1.8×10^3 cells/mm^2) was dispensed on a plate pretreated with poly-D-lysine ([…])/laminin ([…]). The cells were placed in 10% FBS-containing NBM medium, and incubated in a […]/5% CO2 atmosphere at 37° C. After 15-16 days of the incubation, the experiment was performed.
In order to induce hypoxic-ischemic symptoms in vitro, the incubated cells were placed in an anoxic chamber (partial oxygen pressure <2 mmHg). The cells were incubated glucose-free DMEM while being bubbled with an anaerobic gas mixture (95% N2 and 5% CO2) for 30 minutes to remove residual oxygen, and were incubated at 37° C. for 90 minutes for oxygen deprivation. After 90 minutes, the exposed solution was replaced with 25 mmol/L glucose-containing DMEM medium to stop the OGD reaction, and the cells were restored to normal oxygen conditions. Control cells not exposed to OGD were incubated in glucose (25 mmol/L)-containing DMEM medium provided with an aerobic gas mixture (95% air and 5% CO2). The cells were treated with each sample 30 minutes before, and during the entire period of OGD/re-oxygenation.
In order to measure cell injury or cell death, the amount of LDH released into the medium was measured using a cell viability measurement kit (Sigma-Aldrich, St. Louis, Mo.). Cell viability was expressed as the percentage of LDH relative to the total cellular LDH level measured in sister cultures lysed by freezing-thawing after the experiment.

Series [3] deals with focal cerebral ischemia (MCAO) rats. Nature of the series: Focal cerebral ischemia model (MCAO). Format: in vivo, SD rats. The note with it: transient ischemia rat; 50 mg/kg intraperitoneal, twice (2 hours and 7 hours after brain infarction); FIG. 4. Here is the method: Rats were anesthetized with 3.0% isoflurane in N2O and O2 (70:30 v/v) mixture via facemask and were maintained in 2% isoflurane. Throughout the experimental period, the body temperature was controlled and kept to 37° C.±0.3° C. using a rectal thermometer and a heating pad until the animals were sufficiently recovered from anesthesia after surgery. Focal cerebral ischemia was achieved by right-sided endovascular MCAO. Briefly, a 3-0 heat-blunted monofilament nylon suture (Ethicon Johnson & Johnson, Brussels, Belgium) were inserted into the lumen of the right external carotid artery stump and advanced 17.5 mm into the internal carotid artery to occlude the ostium of the MCA. The suture was removed after 1.5 hours to allow animals to recover. Operated controls were subjected to the same surgical procedures, except for MCAO. Physiological values were measured 15 minutes before MCAO and at 15 minutes after reperfusion, and mean blood pressure was monitored for 5 minutes using a blood pressure analyzer (MicroMed, Lousville, Ky.), and glucose were monitored using an analyzer (Ciba Corning Diagnostics Corp., Medfield, Mass.). […]
Rats were anesthetized with 3.5% chloral hydrate (5 ml/kg, intraperitoneal injection) and decapitated. […] The cross-sectional area of infarction between the bregma levels of +4 mm (anterior) and −6 mm (posterior) were determined with analysis software (OPTIMAS5.1 image analysis program, BioScanInc. Edmonds, Wash.). Brain infarct size was measured manually by outlining the margins of infarct areas. The total infarction volume (mm^3) was calculated according to the following equation 5 as disclosed in a document (J Neurosci Methods (1998) 84:9-16; J Cereb Blood Flow Metab (1990) 10:290-293), and compensated for brain edema. Cerebral edema was determined by the percent increase of the ipsilateral/contralateral hemisphere area as shown in the following equation 6. […]

In the case of `COc1cc(C=CC2=CC(=O)[C@H]3C[C@@H]2C3(C)C)cc(O)c1O` [Compound 3f, (1S,5R)-4-(3,4-dihydroxy-5-methoxystyryl)-6,6-dimethylbicyclo[3.1.1]hept-3-en-2-one], the “OGD-induced intracellular oxidative stress (DCF fluorescence)” value in the series on cortical neurons [1] was “reduced OGD-induced intracellular oxidative stress”. Also, the “neuronal injury induced by OGD (LDH release)” value in the series on cortical neurons [2] (OGD/reoxygenation, comparable to MK801) was “significantly reduced neuronal injury”. Also, the cytotoxicity entry in the series on cortical neurons [2] is “showed no cytotoxicity”. In series [3], the cerebral edema result is “significantly reduced”, the ischemic injury result is “significantly reduced” and the neurological deficit result is on record as “significantly reduced”.
